Measured values: patent US4232121A, “Process for selecting methine dyes which inhibit cell growth” (Eastman Kodak Company, priority 1978, dated 1980)
Values joined by “and” are separate entries in the source; they are usually repeats but may differ in a detail not shown here. Equal values may be shown once. Read-outs that look alike come from different tables or passages of the source.

How the values were obtained:
[1] = tested on: Bacillus pumilus strain K-1; assay: Inhibition of bacterial growth, filter paper on inoculated agar plates; assay type: cell-based
Description: Nutrient broth was prepared by mixing 8 grams of BACTO dehydrated nutrient broth per liter of distilled water. […] Samples of the nutrient broth were then inoculated with Bacillus pumilus strain K-1 culture. […]
Nutrient agar was prepared by mixing 23 grams of BACTO nutrient agar per liter of distilled water. The nutrient agar was sterilized in the same way as the nutrient broth. After it has cooled to about 45° C. 250 ml of the nutrient agar solution was aeseptically inoculated with 5 ml of the Bacillus pumilus, K-1 culture prepared in (A), above. Plates of the inoculated nutrient agar were then poured and allowed to harden.
[…] To minimize possible photocatalyzed reactions of the dyes, all preparations were performed under yellow lights and all incubations were performed in the dark.
Schleider and Schuell #740-E filter paper (12.7 mm diameter) was dipped in the dye solution, touched to the side of the beaker to removed excess dye, and placed in the center of the inoculated agar plates (prepared in (B) above). […] The plates were then examined to determine if bacterial growth had been affected by the dye-containing filter paper. […]
Control plates were prepared in which the filter paper contained methanol or a 0.2 molar aqueous solution of phenol. […]

Sea Urchin Eggs = assay: Inhibition of cell division in fertilized sea urchin eggs; assay type: cell-based; settings: arbitrary scale 0 to 5, 5 most active; dye 10^-5 to 10^-6 molar, 60 minutes after fertilization
Description: To suspensions in filtered sea water of fertilized sea urchin eggs there was added, three minutes after fertilization, methanolic solutions of the dyes in an amount sufficient to yield a final concentration of dye of between 10^-5 and 10^-6 molar. The final concentration of methanol was, at a maximum 1×10^-4 molar. The eggs were visually observed at 60 minutes after fertilization to determine if cell division and the formation of mitotic apparatus had been inhibited. A rating was assigned based on the concentration of dye required to inhibit cell division and synthesis of DNA.

[2] = tested on: the bacteria (various gram-negative and gram-positive); assay: Binding of dyes to the bacteria of Example 9; settings: determined as in Example 8
Description: In addition, binding of dyes 7, 17 and 24 to the bacteria was determined as in Example 8.

[3] = not told
Description: (§3) If a published reduction potential is not available, suitable techniques for measuring reduction potential are available and can be used. […] This technique involves measurement at 20° C., of an approximately 10^-4 molar solution of the dye in an electrolyte, such as methanol which is 0.05 molar in lithium chloride, using a dropping mercury electrode. The potential values are reported by reference to a silver-silver chloride electrode in a saturated solution of potassium chloride at 20° C.

Bacillus pumilus (K-1) = tested on: Bacillus pumilus (K-1)
Description: This can be accomplished by contacting a given concentration of the dye with the cells, removing the cells from the dye solution and then comparing the optical density (at λmax) of the remaining dye solution with a control containing the original concentration of the dye. The percentage decrease in optical density indicates the percentage of dye which has been bound to the cells.
The culture was collected by centrifugation at 5,000×g. for 10 minutes, and the resultant pellet was washed several times in cold 0.05 M potassium phosphate buffer, pH 7.0. The pellet was resuspended in the buffer solution to a final optical density of 1.0 at 620 nm as measured with a Bausch and Lomb Spectronic 20.
One-tenth ml of dye solution (1 mg/ml in methanol) was added to a tube containing 5 ml of cell suspension described above and a control tube containing 0.05 M potassium phosphate buffer, pH 7.0. All tubes were well agitated using a Vari-Whirl Mixer (Will Scientific Co.) and then centrifuged at 10,000×g. for 10 minutes.
The percent binding of dye to the cells for each dye, was determined by comparison of the density at λmax of the control supernatant sample with the density at λmax of the supernatant of the cell sample.

Micrococcus flavus = assay: Inhibition of bacterial growth, filter paper technique; assay type: cell-based; settings: Table VIII, 10^-3 molar, Gram +, 26° C./48 hrs; for zone of inhibition at 1000 µM: Micrococcus flavus, read-out: Area of Inhibition (diameter)
Description: (§1) Schleider and Schuell #740-E filter paper (12.7 mm diameter) was dipped in the dye solution, touched to the side of the beaker to removed excess dye, and placed in the center of the inoculated agar plates (prepared in (B) above). The plates were then incubated at 26° C. for […]. The plates were then examined to determine if bacterial growth had been affected by the dye-containing filter paper. With certain dyes bacterial growth was inhibited in a circular area around the filter paper. With other dyes no such area of inhibition was observed.
(§2) Cultures of various gram-negative and gram-positive bacteria were prepared in nutrient and Tryptic Soy Agar and plates were poured as described in Example 1. Methanolic solutions of cyanine dyes were prepared at 10^-3 molar and applied to the plates using the filter paper technique described in Example 1. Control plates were prepared in which the filter paper contained methanol or a 0.2 molar aqueous solution of phenol. The plates were then incubated at 26° C. or 37° C. for forty-eight hours.

[4] = tested on: Escherichia coli, Strain B; assay: as above; assay type: cell-based; settings: Table VIII; 10^-3 molar; Gram -; 37° C./48 hrs
Description: as §1, §2

Proteus vulgaris = assay: as above; assay type: cell-based; settings: Table VIII; 10^-3 molar; Gram -; 37° C./48 hrs
Description: as §1, §2

Bacillus cereus = assay: as above; assay type: cell-based; settings: Table VIII, 10^-3 molar, Gram +, 26° C./48 hrs; for zone of inhibition at 1000 µM: Bacillus cereus, read-out: Area of Inhibition (diameter)
Description: as §1, §2

Alcaligenes faecalis = assay: as above; assay type: cell-based; settings: Table VIII; 10^-3 molar; Gram -; 37° C./48 hrs
Description: as §1, §2

Bacillus subtilis = assay: as above; assay type: cell-based; settings: Table VIII, 10^-3 molar, Gram +, 26° C./48 hrs, read-out: Area of Inhibition (diameter)
Description: as §1, §2

Micrococus luteus = assay: as above; assay type: cell-based; settings: Table VIII, 10^-3 molar, Gram +, 26° C./48 hrs; for zone of inhibition at 1000 µM: read-out: Area of Inhibition (diameter)
Description: as §1, §2

Bacillus megaterium = assay: as above; assay type: cell-based; settings: Table VIII, 10^-3 molar, Gram +, Tryptic Soy, 37° C./48 hrs; for zone of inhibition at 1000 µM: Priestia megaterium, read-out: Area of Inhibition (diameter)
Description: as §1, §2

Enterobacter aerogenes = assay: as above; assay type: cell-based; settings: Table VIII; 10^-3 molar; Gram -; 37° C./48 hrs
Description: as §1, §2

[5] = Oxidation potential (Eox) of the dye; assay type: physicochemical; settings: Tables I, II, V, VI
[6] = Reduction potential (ER) of the dye; settings: list of dyes; vs. silver-silver chloride electrode, 20° C.
Description: as §3

[7] = Bacillus pumilus, K1, 48 h, Table VIII, 10^-3 molar, Nutrient, 37° C./48 hrs, read-out: Area of Inhibition (diameter)
[8] = Bacillus pumilus, K1, 72 h, Tables V and VI, 10^-3 molar, three days, read-out: Diameter of Inhibition
[9] = Bacillus pumilus, K1, Table II, 10^-4 molar, 26° C., forty-eight hours, read-out: Diameter of Inhibition
[10] = Bacillus pumilus, K1, Table IX, 10^-3 M, read-out: Diameter of Inhibition
[11] = Bacillus pumilus, K1, Table IX, 10^-4 M, read-out: Diameter of Inhibition
[12] = Table II, 10^-4 molar, 26° C., forty-eight hours

SMILES | binding to the bacteria (in words) [2] | ER [3] | reduction potential (ER) [3] | % Bound (Bacillus pumilus (K-1)) | Activity Rating [1] | zone of inhibition at 1000 µM [1, 7] | zone of inhibition at 1000 µM [1, 10] | Sea Urchin Eggs Activity (Sea Urchin Eggs) | zone of inhibition at 1000 µM (Micrococcus flavus) | Area of Inhibition (diameter) [4] | Area of Inhibition (diameter) (Proteus vulgaris) | zone of inhibition at 1000 µM (Bacillus cereus) | Area of Inhibition (diameter) (Alcaligenes faecalis) | zone of inhibition at 1000 µM (Bacillus subtilis) | zone of inhibition at 1000 µM (Micrococus luteus) | zone of inhibition at 1000 µM (Bacillus megaterium) | Area of Inhibition (diameter) (Enterobacter aerogenes) | further results
CCN1C(=CC=Cc2oc3ccccc3[n+]2CC)Oc2ccccc21 [Dye 7] | found to bind | -1.26 | -1.26 volts | 31.7% | 100 | 24 mm | 34 mm | +4 | 19 mm | No | No | 14 mm | No | 18 mm | 16 mm | 21 mm | No | zone of inhibition at 1000 µM [1, 8]: 34 mm; zone of inhibition at 100 µM ([1]; Bacillus pumilus, K1, Table I, 10^-4 molar, 26° C., fifty hours, dark, read-out: Diameter of Inhibition): 22.5 mm; zone of inhibition at 100 µM [1, 9]: 25.5 mm; zone of inhibition at 100 µM ([1]; Bacillus pumilus, K1, Table III, 1.0 × 10^-4 M, read-out: Diameter of Inhibition): 26 mm; zone of inhibition at 200 µM ([1]; Bacillus pumilus, K1, Table III, 2.0 × 10^-4 M, read-out: Diameter of Inhibition): 29 mm; zone of inhibition at 25 µM ([1]; Bacillus pumilus, K1, Table III, 2.5 × 10^-5 M, read-out: Diameter of Inhibition): 14.5 mm; zone of inhibition at 50 µM ([1]; Bacillus pumilus, K1, Table III, 5.0 × 10^-5 M, read-out: Diameter of Inhibition): 20 mm; zone of inhibition at 100 µM [1, 11]: 25.5 mm; degree of inhibition compared with phenol (in words) ([1]; dye 7 at 1×10^-4 molar): same degree of inhibition as phenol at 2.13×10^-1 molar; times more active as an inhibitor than phenol ([1]; dye 7 at 1×10^-4 molar vs phenol at 2.13×10^-1 molar): ~2000 times
CCN1C(=Cc2oc3ccccc3[n+]2CC)Oc2ccccc21 [Dye 1] |  | -1.69 | -1.69 volts | 33.6% | 39 | 18 mm | 18 mm |  |  | No | No |  | No | 13 mm | 22 mm | 17 mm | No | Area of Inhibition (diameter) (Micrococcus flavus): No; Area of Inhibition (diameter) (Bacillus cereus): No
CCN1C(=CC=Cc2sc3cc([N+](=O)[O-])ccc3[n+]2CC)Sc2cc([N+](=O)[O-])ccc21 [Dye 29] |  |  |  |  |  |  |  | 0 |  |  |  |  |  |  |  |  |  | Diameter of Inhibition ([1]; Table IX, 10^-3 M): None; Activity Rating ([1]; Table IX, 10^-3 M, relative to phenol concentration giving equal diameter, Dye 7 = 100 (dye 20 relative to dye 17)): 0; reduction potential (ER) [6]: -0.58 volts; % Bound (Bacillus pumilus (K-1); Table IX): 67.9%
CCN1C(=CC=Cc2sc3ccccc3[n+]2CC)Sc2ccccc21 [Dye 17] | found to bind | -1.00 | -1.00 volts | 73.1% | 18 and 31 | 17 mm | 19 mm | +4 | 15 mm | No | No | 13 mm | No | 15 mm | 14 mm | 14 mm | No | effect upon diameter of inhibition as a result of changing the anion ([1]; 10^-3 molar, three days): no effect upon diameter of inhibition; zone of inhibition at 1000 µM [1, 8]: 19 mm; zone of inhibition at 100 µM [1, 9]: 16.5 mm; zone of inhibition at 100 µM [1, 11]: 16.5 mm

The next lines start with results.

binding to the bacteria (in words) [2] | ER [3] | reduction potential (ER) [3] | % Bound (Bacillus pumilus (K-1)) | SMILES | Activity Rating [1] | zone of inhibition at 1000 µM [1, 7] | zone of inhibition at 1000 µM [1, 10] | Sea Urchin Eggs Activity (Sea Urchin Eggs) | zone of inhibition at 1000 µM (Micrococcus flavus) | Area of Inhibition (diameter) [4] | Area of Inhibition (diameter) (Proteus vulgaris) | zone of inhibition at 1000 µM (Bacillus cereus) | Area of Inhibition (diameter) (Alcaligenes faecalis) | zone of inhibition at 1000 µM (Bacillus subtilis) | zone of inhibition at 1000 µM (Micrococus luteus) | zone of inhibition at 1000 µM (Bacillus megaterium) | Area of Inhibition (diameter) (Enterobacter aerogenes) | further results
 | -.83 | -0.83 volts | 99.4% | CCN1C(=CC=CC=Cc2oc3ccccc3[n+]2CC)Oc2ccccc21 [Dye 21] | 66 | 21 mm | 21 mm |  | 18 mm | No | No | 14 mm | No | 16 mm | 14 mm | 18 mm | No | 
 |  | -0.20 volts | 83.7% | Cn1c(-c2ccccc2)c(C=CC=C2C(c3ccccc3)=[N+](C)c3ccccc32)c2ccccc21 [Dye 33] | 0 |  |  | 0 |  | No | No |  | No | 13 mm |  |  | No | Diameter of Inhibition ([1]; Table I, 10^-4 molar, 26° C., fifty hours, dark): None; Diameter of Inhibition [1, 12]: None; Diameter of Inhibition ([1]; Table IX, 10^-3 M): None; Diameter of Inhibition ([1]; Table IX, 10^-4 M): None; Area of Inhibition (diameter) ([1]; Table VIII, 10^-3 molar, Nutrient, 37° C./48 hrs): No; Eox [5]: > +1.00; Area of Inhibition (diameter) (Micrococcus flavus): No; Area of Inhibition (diameter) (Bacillus cereus): No; Area of Inhibition (diameter) (Micrococus luteus): Slight; Area of Inhibition (diameter) (Bacillus megaterium): No
found to bind |  | -0.79 volts | 32.8% | CCN1C(=CC=Cc2n(CC)c3nc4ccccc4nc3[n+]2CC)N(CC)c2nc3ccccc3nc21 [Dye 24] |  | 13 mm | 13 mm | 0 | 13 mm | No | No | 13.5 mm | No | 13 mm | 14 mm | 14 mm | Slight | Diameter of Inhibition [1, 12]: None; Diameter of Inhibition ([1]; Table IX, 10^-4 M): None; Eox [5]: +1.00
